According to the supplement of paper PMC10307832:

Columns and labels:
Assay in all cases: relative viability (nuclei count vs DMSO), 5 days (fraction); higher = more cells survive
[1] = tested on: NCI-H2087
How it was run: (§1)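 One day after seeding in 1536-well plates, lung cancer cell lines were dosed by pin tool. Dosing was either single-drug or a fixed anchor-drug dose plus five library-drug doses (not always all listed) in √10 steps. After 5 days, nuclei were stained in one fix-and-stain step and counted on 4× images, and relative viability is the nuclei count of treated wells over that of vehicle wells, given as the median of duplicate plates.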

[2] = tested on: EMC-BAC-2
How it was run: as §1

[3] = tested on: NCI-H727
How it was run: as §1

[4] = tested on: NCI-H2009
How it was run: as §1

[5] = tested on: NCI-H596
How it was run: as §1

[6] = tested on: HARA
How it was run: as §1

[7] = tested on: NCI-H2126
How it was run: as §1

[8] = tested on: HCC-44
How it was run: as §1

[9] = tested on: NCI-H3122
How it was run: as §1

[10] = tested on: NCI-H2023
How it was run: as §1

[11] = tested on: LOU-NH91
How it was run: as §1

[12] = tested on: NCI-H1666
How it was run: as §1

[13] = tested on: LCLC-103H
How it was run: as §1

[14] = tested on: NCI-H441
How it was run: as §1

[15] = tested on: NCI-H838
How it was run: as §1

[16] = tested on: NCI-H2347
How it was run: as §1

[17] = tested on: NCI-H23
How it was run: as §1

[18] = tested on: NCI-H650
How it was run: as §1

[19] = tested on: BEN
How it was run: as §1

[20] = tested on: NCI-H647
How it was run: as §1

[21] = tested on: NCI-H1993
How it was run: as §1

[22] = tested on: 201T
How it was run: as §1

COc1cc(N2CCC(C(N)=O)CC2)ccc1Nc1nc(N)c(Cl)c(Nc2ccccc2S(=O)(=O)C(C)C)n1 [HG-5-88-01] + CC(C)C[C@H](NC(=O)[C@H](Cc1ccccc1)NC(=O)c1cnccn1)B(O)O [Bortezomib] (partner 0.002 µM)
relative viability ([1]; first compound 0.04 µM): 0.818 | relative viability ([1]; first compound 0.1265 µM): 0.692 | relative viability ([1]; first compound 0.4 µM): 0.713 | relative viability ([1]; first compound 1.265 µM): 1.01 | relative viability ([1]; first compound 4 µM): 0.934 | relative viability ([2]; first compound 0.04 µM): 1.07 | relative viability ([2]; first compound 0.1265 µM): 1.06 | relative viability ([2]; first compound 0.4 µM): 1.04 | relative viability ([2]; first compound 1.265 µM): 1.09 | relative viability ([2]; first compound 4 µM): 0.931 | relative viability ([3]; first compound 0.04 µM): 0.689 | relative viability ([3]; first compound 0.1265 µM): 0.924 | relative viability ([3]; first compound 0.4 µM): 0.769 | relative viability ([3]; first compound 1.265 µM): 0.643 | relative viability ([3]; first compound 4 µM): 0.388 | relative viability ([4]; first compound 0.04 µM): 0.99 | relative viability ([4]; first compound 0.1265 µM): 1.19 | relative viability ([4]; first compound 0.4 µM): 0.845 | relative viability ([4]; first compound 1.265 µM): 0.986 | relative viability ([4]; first compound 4 µM): 0.765 | relative viability ([5]; first compound 0.04 µM): 1.25 | relative viability ([5]; first compound 0.1265 µM): 0.948 | relative viability ([5]; first compound 0.4 µM): 1 | relative viability ([5]; first compound 1.265 µM): 0.964 | relative viability ([5]; first compound 4 µM): 1.02 | relative viability ([6]; first compound 0.04 µM): 1.16 | relative viability ([6]; first compound 0.1265 µM): 1.03 | relative viability ([6]; first compound 0.4 µM): 1.07 | relative viability ([6]; first compound 1.265 µM): 1.02 | relative viability ([6]; first compound 4 µM): 1.02 | relative viability ([7]; first compound 0.04 µM): 1.16 | relative viability ([7]; first compound 0.1265 µM): 1.12 | relative viability ([7]; first compound 0.4 µM): 1.13 | relative viability ([7]; first compound 1.265 µM): 1.15 | relative viability ([7]; first compound 4 µM): 1.12 | relative viability ([8]; first compound 0.04 µM): 0.901 | relative viability ([8]; first compound 0.1265 µM): 0.868 | relative viability ([8]; first compound 0.4 µM): 0.679 | relative viability ([8]; first compound 1.265 µM): 0.832 | relative viability ([8]; first compound 4 µM): 0.754 | relative viability ([9]; first compound 0.04 µM): 0.894 | relative viability ([9]; first compound 0.1265 µM): 0.647 | relative viability ([9]; first compound 0.4 µM): 0.335 | relative viability ([9]; first compound 1.265 µM): 0.296 | relative viability ([9]; first compound 4 µM): 0.216 | relative viability ([10]; first compound 0.04 µM): 1.08 | relative viability ([10]; first compound 0.1265 µM): 1.34 | relative viability ([10]; first compound 0.4 µM): 0.753 | relative viability ([10]; first compound 1.265 µM): 0.542 | relative viability ([10]; first compound 4 µM): 0.454 | relative viability ([11]; first compound 0.04 µM): 0.54 | relative viability ([11]; first compound 0.1265 µM): 0.53 | relative viability ([11]; first compound 0.4 µM): 0.472 | relative viability ([11]; first compound 1.265 µM): 0.48 | relative viability ([11]; first compound 4 µM): 0.48 | relative viability ([12]; first compound 0.04 µM): 0.944 | relative viability ([12]; first compound 0.1265 µM): 0.897 | relative viability ([12]; first compound 0.4 µM): 0.597 | relative viability ([12]; first compound 1.265 µM): 0.58 | relative viability ([12]; first compound 4 µM): 0.452 | relative viability ([13]; first compound 0.04 µM): 1.02 | relative viability ([13]; first compound 0.1265 µM): 0.995 | relative viability ([13]; first compound 0.4 µM): 0.913 | relative viability ([13]; first compound 1.265 µM): 1.01 | relative viability ([13]; first compound 4 µM): 1.01 | relative viability ([14]; first compound 0.04 µM): 0.579 | relative viability ([14]; first compound 0.1265 µM): 0.423 | relative viability ([14]; first compound 0.4 µM): 0.622 | relative viability ([14]; first compound 1.265 µM): 0.558 | relative viability ([14]; first compound 4 µM): 0.379 | relative viability ([15]; first compound 0.04 µM): 0.818 | relative viability ([15]; first compound 0.1265 µM): 0.645 | relative viability ([15]; first compound 0.4 µM): 0.759 | relative viability ([15]; first compound 1.265 µM): 0.702 | relative viability ([15]; first compound 4 µM): 0.333 | relative viability ([16]; first compound 0.04 µM): 0.954 | relative viability ([16]; first compound 0.1265 µM): 0.873 | relative viability ([16]; first compound 0.4 µM): 1.01 | relative viability ([16]; first compound 1.265 µM): 1.16 | relative viability ([16]; first compound 4 µM): 0.897 | relative viability ([17]; first compound 0.04 µM): 0.954 | relative viability ([17]; first compound 0.1265 µM): 1.02 | relative viability ([17]; first compound 0.4 µM): 0.91 | relative viability ([17]; first compound 1.265 µM): 1.12 | relative viability ([17]; first compound 4 µM): 0.629 | relative viability ([18]; first compound 0.04 µM): 0.844 | relative viability ([18]; first compound 0.1265 µM): 0.767 | relative viability ([18]; first compound 0.4 µM): 0.711 | relative viability ([18]; first compound 1.265 µM): 0.815 | relative viability ([18]; first compound 4 µM): 0.381 | relative viability ([19]; first compound 0.04 µM): 0.652 | relative viability ([19]; first compound 0.1265 µM): 0.752 | relative viability ([19]; first compound 0.4 µM): 0.714 | relative viability ([19]; first compound 1.265 µM): 0.841 | relative viability ([19]; first compound 4 µM): 0.791 | relative viability ([20]; first compound 0.04 µM): 1.02 | relative viability ([20]; first compound 0.1265 µM): 0.826 | relative viability ([20]; first compound 1.265 µM): 1.07 | relative viability ([20]; first compound 4 µM): 0.967 | relative viability ([21]; first compound 0.04 µM): 1.08 | relative viability ([21]; first compound 0.1265 µM): 1.08 | relative viability ([21]; first compound 0.4 µM): 0.971 | relative viability ([21]; first compound 1.265 µM): 0.819 | relative viability ([21]; first compound 4 µM): 1.02 | relative viability ([22]; first compound 0.04 µM): 1.12 | relative viability ([22]; first compound 0.1265 µM): 1.03 | relative viability ([22]; first compound 0.4 µM): 1.1 | relative viability ([22]; first compound 1.265 µM): 1.06 | relative viability ([22]; first compound 4 µM): 1.2
